# How the values were obtained:
# [1] = test system: Rb phosphorylation in cells; settings: literature report; cited from earlier work
# [2] = test system: Rb phosphorylation in tumor xenografts; settings: literature report; cited from earlier work
# [3] = test system: Rb phosphorylation in human PBMCs; assay: Rb phosphorylation in human PBMCs stimulated ex vivo with PMA; type: cell-based
# Method: Approximately 10 mls of blood was collected from five healthy human volunteers into sodium heparin treated Vacutainer blood collection tubes by Employee Health Services. PBMCs were separated using the Lymphocyte Separation Medium (LSM) and protocol supplied by ICN Biomedicals Inc. (Costa Mesa, Calif.). Briefly whole blood was diluted 1:1 with cold HBSS (Hanks Balanced Salt Solution), layered onto the LSM and centrifuged. The band of mononuclear cells above the LSM was collected, transferred to a new tube and washed once with cold HBSS. Cells were resuspended in RPMI 1640, 10% HI-FBS, 2 mM L-glutamine and 0.01 mg/ml Gentamicin Reagent Solution (GIBCO/Invitrogen). […]
# (§1) PBMCs were collected by transferring the cells, including attached cells and those in suspension, into 50 ml tubes. […] Samples were sonicated on ice for 30 seconds, clarified by centrifugation at 16,000×g for 10 minutes at 4° C. and protein concentrations determined using Non-Interfering Protein Assay Kit (Geno Technology Incorporated, Maplewood, Mo.). […] For Western blotting, total Rb was detected using antibody from Pharmingen (BD Bioscience, San Diego, Calif.) at a dilution of 1:2000. Lysates were analysed by Western blotting for Rb phosphorylation using polyclonal antibodies against phosphorylated serine 795, serine 780, threonine 821 and serine 807/811 in human Rb (FIG. 8). […]
# [4] = test system: Rb phosphorylation in rat PBMCs; assay: Rb phosphorylation in rat PBMCs following ex vivo PMA activation; type: cell-based; settings: 300 ng/ml for 24 hours, Western blot
# Method: PBMCs are not cycling cells and need to be stimulated with the mitogen PMA to enter the cell cycle.
# Blood from three rats at the specified times was pooled (˜10 mls total) and PBMCs were separated using the Lymphocyte Separation Medium (LSM) and protocol supplied by ICN Biomedicals Inc. (Costa Mesa, Calif.). Briefly whole blood was diluted 1:1 with cold HBSS (Hanks Balanced Salt Solution), layered onto the LSM and centrifuged. The layer of mononuclear cells above the LSM was collected, transferred to a new tube and washed once with cold HBSS. Cells were resuspended in RPMI 1640, 10% HI-FBS, 2 mM L-glutamine and 0.01 mg/ml Gentamicin Reagent Solution (GIBCO/Invitrogen). Cells were seeded into T-75 cm^2 flasks at ≦1×10^7 cells in 20 mls medium and stimulated with 300 ng/ml of phorbol 12-myristate 13-acetate (PMA) for 24 hours. […]
# as §1, with “1:2000.” for “1:2000. Lysates were analysed by Western blotting for Rb phosphorylation using polyclonal antibodies against phosphorylated serine 795, serine 780, threonine 821 and serine 807/811 in human Rb (FIG. 8).”
# [5] = test system: phosphorylated Rb; settings: phase 1, in combination with docetaxel, cited from earlier work
smiles,measurement,setting,value
CC(C)(C)c1cnc(CSc2cnc(NC(=O)C3CCNCC3)s2)o1 [BMS-387032],Rb phosphorylation in cells,[1],Inhibition of Rb phosphorylation
"CC[C@H](CO)Nc1nc(NCc2ccccc2)c2ncn(C(C)C)c2n1 [CYC 202, r-Roscovitine]",Rb phosphorylation in cells,[1],Inhibition of Rb phosphorylation
CC(=O)c1c(C)c2cnc(Nc3ccc(N4CCNCC4)cn3)nc2n(C2CCCC2)c1=O [PD 0332991],Rb phosphorylation in tumor xenografts,[2],Inhibition of Rb phosphorylation
same,Rb phosphorylation in cells,[1],Inhibition of Rb phosphorylation
"CCCCCCCCCCCCCC(=O)O[C@@H]1[C@@H](C)[C@@]2(O)[C@@H](C=C(CO)C[C@]3(O)C(=O)C(C)=C[C@@H]23)[C@@H]2C(C)(C)[C@]12OC(C)=O [PMA, phorbol 12-myristate 13-acetate]",Phosphorylation at serine 795 and serine 780 in human PBMCs,"[3]; 300 ng/ml, 24, 48 and 72 hours post stimulation",not significant until 48-72 hours
same,Phosphorylation at serine 807/811 and threonine 821 sites in human PBMCs,"[3]; 300 ng/ml, 24 hours post mitogen addition, five donors",Significant phosphorylation
same,Phosphorylated Rb in rat PBMCs after mitogen stimulation,[4],sufficient for detection of phosphorylated Rb
CN1CC[C@H](c2c(O)cc(O)c3c(=O)cc(-c4ccccc4Cl)oc23)[C@H](O)C1 [flavopiridol],pRb in paired tumors,[5]; 6 paired tumors,no significant changes
same,pRb in buccal mucosa biopsies post treatment,[5]; patients with metastatic tumors,somewhat decreased
same,Rb phosphorylation in cells,[1],Inhibition of Rb phosphorylation
